PubChem BioAssay (NCI)
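The concentration for 50% growth inhibition is given as GI50. TGI is the concentration that stops growth completely.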

Key:
Assay in all cases: NCI-60 cell line screen, 384-well format
A498 renal = test system: A498 renal
A549 NSCLC = test system: A549 NSCLC
BT-549 breast = test system: BT-549 breast
CAKI-1 renal = test system: CAKI-1 renal
EKVX NSCLC = test system: EKVX NSCLC
HCC-2998 colon = test system: HCC-2998 colon
HCT-116 colon = test system: HCT-116 colon
HCT-15 colon = test system: HCT-15 colon
HL-60(TB) leukemia = test system: HL-60(TB) leukemia
HS 578T breast = test system: HS 578T breast
HT29 colon = test system: HT29 colon
KM12 colon = test system: KM12 colon
LOX IMVI melanoma = test system: LOX IMVI melanoma
MALME-3M melanoma = test system: MALME-3M melanoma
MDA-MB-231 breast = test system: MDA-MB-231 breast
MDA-MB-435 melanoma = test system: MDA-MB-435 melanoma
NCI-H322M lung = test system: NCI-H322M lung
NCI-H460 NSCLC = test system: NCI-H460 NSCLC
NCI-H522 lung = test system: NCI-H522 lung
NCI/ADR-RES ovarian = test system: NCI/ADR-RES ovarian
OVCAR-3 ovarian = test system: OVCAR-3 ovarian
PC-3 prostate = test system: PC-3 prostate
RPMI-8226 leukemia = test system: RPMI-8226 leukemia
RXF 393 renal = test system: RXF 393 renal
SF-268 CNS = test system: SF-268 CNS
SF-539 CNS = test system: SF-539 CNS
SK-MEL-28 melanoma = test system: SK-MEL-28 melanoma
SK-MEL-5 melanoma = test system: SK-MEL-5 melanoma
SK-OV-3 ovarian = test system: SK-OV-3 ovarian
SNB-75 CNS = test system: SNB-75 CNS
SW-620 colon = test system: SW-620 colon
T-47D breast = test system: T-47D breast
U251 glioblastoma = test system: U251 glioblastoma
UACC-257 melanoma = test system: UACC-257 melanoma

**Q.** Which results are given for `Cc1cccc(-c2nn3c(c2-c2ccnc4ccc(C(N)=O)cc24)CCC3)n1`?
**A.** GI50 (A498 renal): 3.34 µM; TGI (A498 renal): 12 µM; GI50 (A549 NSCLC): 3.93 µM; TGI (A549 NSCLC): 14.3 µM; GI50 (BT-549 breast): 2.41 µM; TGI (BT-549 breast): 5.7 µM; GI50 (CAKI-1 renal): 3.9 µM; TGI (CAKI-1 renal): 14.1 µM; GI50 (EKVX NSCLC): 3.92 µM; TGI (EKVX NSCLC): 12.8 µM; GI50 (HCC-2998 colon): 3.78 µM; TGI (HCC-2998 colon): 13.2 µM; GI50 (HCT-116 colon): 3.65 µM; TGI (HCT-116 colon): 12.3 µM; GI50 (HCT-15 colon): 2.97 µM; TGI (HCT-15 colon): 10.6 µM; GI50 (HL-60(TB) leukemia): 2.08 µM; TGI (HL-60(TB) leukemia): 3.57 µM; GI50 (HS 578T breast): 1.74 µM; TGI (HS 578T breast): 3.65 µM; GI50 (HT29 colon): 2.37 µM; TGI (HT29 colon): 6.01 µM; GI50 (KM12 colon): 2.47 µM; TGI (KM12 colon): 6.04 µM; GI50 (LOX IMVI melanoma): 2.77 µM; TGI (LOX IMVI melanoma): 7.47 µM; GI50 (MALME-3M melanoma): 5.57 µM; TGI (MALME-3M melanoma): 16.4 µM; GI50 (MDA-MB-231 breast): 4.81 µM; TGI (MDA-MB-231 breast): 16.6 µM; GI50 (MDA-MB-435 melanoma): 1.95 µM; TGI (MDA-MB-435 melanoma): 3.83 µM; GI50 (NCI-H322M lung): 3.86 µM; TGI (NCI-H322M lung): 16.6 µM; GI50 (NCI-H460 NSCLC): 2.37 µM; TGI (NCI-H460 NSCLC): 5.92 µM; GI50 (NCI-H522 lung): 1.8 µM; TGI (NCI-H522 lung): 4.1 µM; GI50 (NCI/ADR-RES ovarian): 2.17 µM; TGI (NCI/ADR-RES ovarian): 4.48 µM; GI50 (OVCAR-3 ovarian): 2.15 µM; TGI (OVCAR-3 ovarian): 3.96 µM; GI50 (PC-3 prostate): 3.64 µM; TGI (PC-3 prostate): 11.8 µM; GI50 (RPMI-8226 leukemia): 1.74 µM; TGI (RPMI-8226 leukemia): 3.13 µM; GI50 (RXF 393 renal): 2.02 µM; TGI (RXF 393 renal): 4.6 µM; GI50 (SF-268 CNS): 3.05 µM; TGI (SF-268 CNS): 9.5 µM; GI50 (SF-539 CNS): 2.44 µM; TGI (SF-539 CNS): 5.39 µM; GI50 (SK-MEL-28 melanoma): 6.9 µM; TGI (SK-MEL-28 melanoma): 19.7 µM; GI50 (SK-MEL-5 melanoma): 2.55 µM; TGI (SK-MEL-5 melanoma): 6.56 µM; GI50 (SK-OV-3 ovarian): 3.17 µM; TGI (SK-OV-3 ovarian): 10.4 µM; GI50 (SNB-75 CNS): 2.52 µM; TGI (SNB-75 CNS): 11.3 µM; GI50 (SW-620 colon): 5.1 µM; TGI (SW-620 colon): 15.6 µM; GI50 (T-47D breast): 3.64 µM; TGI (T-47D breast): 16.8 µM; GI50 (U251 glioblastoma): 2.65 µM; TGI (U251 glioblastoma): 8.58 µM; GI50 (UACC-257 melanoma): 6.22 µM; TGI (UACC-257 melanoma): 19.7 µM
